Measurements taken from patent publication US20250163387A1, “HUMAN PITUITARY NEUROENDOCRINE TUMOR ORGANOIDS AND METHODS OF MAKING AND USING THE SAME” (ARIZONA BOARD OF REGENTS OF THE UNIVERSITY OF ARIZONA, A …, priority 2022, published 2025).

Experiments:
Format in all cases: cell-based, human
hPITO39 = test: Nuclear Morphometric Analysis (NII); conditions: compared to pasireotide and ketoconazole
Description: Nuclear Morphometric Analysis (NMA) using treated organoids was performed based on a published protocol that measures cell viability based on the changes in nuclear morphology of the cells using nuclear stain Hoechst or DAPI [30]. Images of organoid nuclei were analyzed using the ImageJ Nuclear Irregularity Index (NII) plugin for key parameters that included cell area, radius ratio, area box, aspect, and roundness. Using the published spreadsheet template, the NII of each cell was calculated with the following formula: NII=Aspect−Area Box+Radius Ratio+Roundness. The area vs NII of vehicle-treated cells were plotted as a scatter plot using the template and considered as the normal cell nuclei. The same plots were generated for each condition, and the NII and area of treated cells were compared to the normal nuclei, and classified as one of the following NMA populations: Normal (N; similar area and NII), Mitotic (S; similar area, slightly higher NII), Irregular (I; similar area, high NII), Small Regular (SR; apoptotic, low area and NII), Senescent (LR; high area, low NII), Small Irregular (SI; low area, high NII), or Large Irregular (LI; high area, high NII). […] The percentage of cells in each NII classification category were calculated and plotted as a histogram using GraphPad Prism. […]

FKBP5 = test: GR modulation: GR target gene FKBP5 expression in PitNET organoids
iPSC^USP48MV organoids [1] = test: Spectral flow cytometry (SSTR2, SSTR5, ACTH, zombie); conditions: Rela 500 nM, Mife 500 nM
Description: (§1) The multicolor flow cytometry panel was designed using the Cytek®Full Spectrum Viewer online tool to calculate the similarity index. The organoids were harvested in cold SFDM media and centrifuged at 400×g for 5 minutes. Supernatant was discarded and organoids were dissociated to single cells using Accutase® (Thermo Fisher Scientific 00-4555-56). The enzymatic reaction was stopped using prewarmed DPBS and cells were then centrifuged at 400×g for 5 minutes and incubated with fluorochrome-conjugated/unconjugated primary surface or cytoplasmic antibodies at 4° C. for 30 minutes. Cells were then washed with Cell Staining Buffer (BioLegend #420-201) and incubated with secondary antibodies at 4° C. for 30 minutes. Cells were fixed using Cytofix/Cytoperm™ Fixation/Permeabilization Solution (BD Biosciences #554714) at 4° C. for 20 minutes, followed by washing with Fixation/Permeabilization wash buffer. Cells were then labeled with fluorochrome-conjugated/unconjugated intracellular primary antibodies at 4° C. for 30 minutes, washed and incubated with secondary antibodies at 4° C. for 30 minutes. Cells resuspended in cell staining buffer and fluorescence measured using the Cytek Aurora 5 Laser Spectral Flow Cytometer. An unstained cell sample was fixed and used as reference control. UltraComp eBeads™, Compensation Beads (Thermo Fisher Scientific #01-2222-42) were stained with the individual antibodies and used as single stain control for compensation and gating. Data was acquired using the Cytek™ Aurora and analyzed using Cytobank software (Beckman Coulter, Indianapolis, IN).

hPITO37 = test: as above; conditions: Mife 2.85 nM
Description: as §1

iPSC^ctrl organoids [2] = test: ACTH secretion ELISA of conditioned media; conditions: 500 nM
Description: (§2) Concentration of secreted ACTH in conditioned media that was collected from organoid cultures was measured using the Human ACTH ELISA Kit (Novus Biologicals, NBP2-66401) according to the manufacturer's protocol. The enzyme-substrate reaction was measured spectrophotometrically (BioTek Gen5 Micro Plate Reader Version 3.11) at a wavelength of 450 nm and the ACTH concentration (pg/mL) was interpolated using a standard curve with a 4-parameter logistic regression analysis using GraphPad Prism (Version 9.2.0).

iPSC^USP48MV organoids [3] = test: ACTH secretion ELISA of conditioned media; conditions: 500 nM
Description: as §2

iPSC^ctrl organoids [4] = test: Proliferation by EdU uptake; conditions: drug alone, 500 nM
Description: (§3) Organoids were immunostained using published protocols by our laboratory. Proliferation was measured by using 5-ethynyl-2'-deoxyuridine (EdU) incorporation according to the Manufacturer's protocol (Click-IT EdU Alexa Fluor 555 Imaging Kit, Thermo Fisher Scientific C10338). Costaining was performed by blocking fixed organoids with 2% donkey serum (Jackson Immuno Research, #017-000-121) diluted in 0.01% PBST for 1 hr. at room temperature. Organoids were then incubated overnight at 4° C. with primary antibodies followed by secondary antibodies and Hoechst (Thermo Fisher Scientific H1399, 1:1000 in 0.01% PBST) for 1 hr at room temperature. Human specific primary antibodies used included: rabbit anti-ACTH (Thermo Fisher Scientific 701293, 1:250), rabbit anti-Synaptophysin (Thermo Fisher Scientific PA5-27286, 1:100), […] (Thermo Fisher Scientific PA5-98650, 1:50), rabbit anti-LH (Thermo Fisher Scientific PA5-102674, 1:100), mouse anti-FSH (Thermo Fisher Scientific MIF2709, 1:100), mouse anti-PRL (Thermo Fisher Scientific CF500720, 1:100), Alexa Flour conjugated GH (NB500-364AF647, 1:100) and mouse anti-CAM5.2 (SIGMA […]-95, 1:250). The secondary antibodies used included Alexa Fluor 488 Donkey Anti Rabbit IgG (H+L) (Thermo Fisher Scientific A21206, 1:100) or Alexa Fluor 647 Donkey Anti Mouse IgG (H+L) (Thermo Fisher Scientific A31571, 1:100). Organoids were visualized and images acquired by confocal microscopy using the Nikon CrestV2 Spinning Disk. Fluorescence intensity and percentage of EdU positive cells of total cells, were calculated using Nikon Elements Software (Version 5.21.05).

iPSC^USP48MV organoids [5] = test: Proliferation by EdU uptake; conditions: drug alone, 500 nM
Description: as §3

Q: What does the source list for `CC#C[C@]1(O)CC[C@H]2[C@@H]3CCC4=CC(=O)CCC4=C3[C@@H](c3ccc(N(C)C)cc3)C[C@@]21C` [Mifepristone]?
A: Apoptosis by nuclear morphometric analysis (hPITO39): induced significant apoptosis; differential expression of FKBP5 (FKBP5): significantly reduced; ACTH positive cells (iPSC^USP48MV organoids [1]; Pas 100 nM): significant induction; cell death (Zombie positive cells) (iPSC^USP48MV organoids [1]; Pas 100 nM): not observed; percentage of SSTR2 positive cells (iPSC^USP48MV organoids [1]; vs Veh): significant increase; percentage of SSTR5 positive cells (iPSC^USP48MV organoids [1]; vs Veh): significant increase; number of ACTH expressing cells (hPITO37): significantly increased; cell death (Zombie positive cells) (hPITO37; Pas 837.5 nM, Rela 382 nM): not observed; percentage of SSTR2 positive cells (hPITO37; Rela 382 nM, vs Veh): significant increase; percentage of SSTR5 positive cells (hPITO37; Rela 382 nM, vs Veh): significant increase; magnitude of ACTH secretion induced (iPSC^ctrl organoids [2]): significantly greater than the effect of relacorilant; magnitude of ACTH secretion induced (iPSC^USP48MV organoids [3]): significantly greater than the effect of relacorilant; cell proliferation (EdU uptake) (iPSC^ctrl organoids [4]): significant increase; cell proliferation (EdU uptake) (iPSC^USP48MV organoids [5]): significant increase
